For one molecule, Controlling value results are on record in patent US12660820B2, “Heterocyclic compound and harmful arthropod-controlling composition including same” (SUMITOMO CHEMICAL COMPANY, LIMITED, priority 2020, dated 2026).

In the assay the test system is cotton aphids (Aphis gossypii). The experiment in a line: Test Method 9: foliar spray on cucumber seedling infested with cotton aphids (Formulation Example 5). Type of assay: in vivo. Particulars: Test Example 9-1; 200 ppm; 5 days after spraying. The method, then: Cucumber (Cucumis sativus) seedling (on the developmental stage of the second true leaf) is planted in a container and approximately 30 cotton aphids (Aphis gossypii) (all developmental stages of life) are released onto the leaves of the cucumber. After 1 day, the diluted solutions are sprayed to the seedling at a ratio of 10 mL/seedling. Further, after 5 days, the number of the surviving insects is examined and the controlling value is calculated by the following equation. Controlling value (%)={1−(Cb×Tai)/(Cai×Tb)}×100 wherein the symbols in the formula represent the following descriptions. • Cb: Number of the test insects in untreated group; • Cai: Number of the surviving insects at the time of the investigation in untreated group; • Tb: Number of the test insects in treated group; • Tai: Number of the surviving insects at the time of the investigation in treated group; Here the “untreated group” represents a group where the similar treatment procedure to that of the treated group except not using the test compound is done.

As for `CCS(=O)(=O)c1c(-c2cnc3cc(C(F)(F)F)ccn3c2=O)nc2cc(C(F)(F)F)ccn12` [compound 6], the Controlling value is given as no less than 90%.
